From patent publication US20020025929A1, “METHOD OF BUILDING AND MAINTAINING BONE” (priority 1997, published 2002)
Marks after values point to notes of the source that are not given here.

How the values were obtained:
Type in all cases: in vivo, Sprague-Dawley rats
[1] = tested on: osteopenic ovariectomized rats; assay: Compression testing of L-6 vertebra; conditions: OVX rats; for vertebral strength (Su) and toughness of L-6 vertebra (in words): continuous treatment (PTH 90 days); for Vert E (Young's modulus) / Vert u (toughness) / Vert σu (vertebral strength): lumbar vertebra in compression, mean ± SEM
Protocol: Bone strength of L-6 vertebrae was measured after the posterior processes were removed and the ends of the centrum made parallel using a diamond wafering saw (Buehler Isomet, Evanston, Ill.). Ultimate stress (σu) Young's modulus (E), and toughness (u) for each vertebra was measured in compression at a load rate of 50 N/sec using the MTS machine. The compressive load was applied through a pivoting platen to correct for nonparallel alignment of the faces of the vertebral body (Turner and Burr, 1993).
Specimens were tested in saline solution at 37° C. Ultimate stress was calculated as the maximum load divided by the gross cross-sectional area πAB/4, where A and B are the vertebral widths in the anterior-posterior and medial lateral directions. Young's modulus was calculated by multiplying stiffness times 4T/πAB, where T is the specimen thickness. Toughness was calculated as the area under the load-displacement curve divided by πABT/4.
(§1) In a second study, virgin Sprague-Dawley rats were bilaterally ovariectomized (except for the sham-operated group), the ovariectomized animals randomized, and allowed to lose bone for one month prior to treatment in the manner described above. The animal groups, each containing 7-8 animals, included sham-operated animals (SHAM); bilaterally ovariectomized animals (OVX); bilaterally ovariectomized animals treated with 0.01, 0.3 or 1 mg/kg/day of compound 1a, respectively, for three months; bilaterally ovariectomized animals treated subcutaneously with PTH(1-34) at a dose of 10 μg/kg/day for three months; bilaterally ovariectomized animals treated subcutaneously with PTH(1-34) at a dose of 10 μg/kg/day and orally with compound 1a at a dose of 0.3 mg/kg/day, both compounds administered for three months; bilaterally ovariectomized animals treated subcutaneously with PTH(1-34) at a dose of 10 μg/kg/day for forty-five days followed by gavage administration of vehicle for forty-five days; bilaterally ovariectomized animals treated subcutaneously with PTH(1-34) at a dose of 10 μg/kg/day for forty-five days followed by oral administration of only compound 1a at a dose of 0.3 mg/kg/day for forty-five days; and bilaterally ovariectomized animals treated with 17α-ethynyl estradiol administered orally at a dose of 0.1 mg/kg/day.

[2] = tested on: osteopenic ovariectomized rats; assay: Three point bending test of femora mid-shaft; design: I (moment of inertia): unit not given beside the values; conditions: OVX rats; for E (Young's modulus) / Fu (ultimate force) / I (moment of inertia) / t (cortical thickness) / u (toughness) / σu (strength): femora mid-shaft, mean ± SEM; for load to failure (Fu) and toughness of femora mid-shaft (in words): 1a dose-dependent up to 1 mg/kg, EE2 0.1 mg/kg, PTH (1-34) 45 and 90 days, combination
Protocol: Bone strength was measured for the femoral neck, midshaft, and the L-6 vertebra. Femora were thawed before testing, and bone strength was measured on intact femora using a three point bending test. Load was applied midway between two supports that were 15 mm apart. The femora were positioned so the loading point was 7.5 mm proximal from the distal popliteal space and bending occurred about the medial-lateral axis. Specimens were tested in a saline bath at 37° C. Each specimen was submerged in the saline bath for three minutes before testing to allow equilibration of temperature. Load-displacement curves were recorded at a crosshead speed of 1 mm/sec using a servo-hydraulic materials testing machine (MTS Corp., Minneapolis, Minn.) and an x-y recorder (Hewlett Packard 7090A, Palo Alto, Calif.). The measurements included: cross-sectional moment of inertia (I), cortical thickness (t), ultimate load (Fu), ultimate stress (σu), Young's modulus (E), and toughness (u). These values were calculated as described previously (Turner and Burr 1993; Turner et al. 1996).
as §1

[3] = tested on: osteopenic ovariectomized rats; assay: Femoral neck strength (shear loading of proximal femur); design: Neck Fu (ultimate force): unit not given beside the values; conditions: OVX rats; for Neck Fu (ultimate force): proximal femora in shear, mean ± SEM
Protocol: Femoral neck strength was measured by mounting the proximal half of the femur vertically in a chuck and applying downward force at a rate of 1 mm/sec on the femoral head until the neck failed. The ultimate load was calculated as the maximum force sustained by the femoral neck. All tests were done at room temperature using the MTS system.
as §1

osteopenic rats = assay: Micro-CT of L-3 vertebra; conditions: continuous dosing, 1a 0.01-1 mg/kg, 17α-ethynyl estradiol 0.1 mg/kg, PTH (1-34), 1a 0.3 mg/kg with PTH (1-34), FIG. 3
Protocol: The metaphysis of proximal tibiae were scanned longitudinally from baseline, using a 960A pQCT loaded with Dichte software version 5.2 (Norland/Stratec, Ft. Atkinson, Wis.), using the technique described by Sato et al., —1995, JPET 272:1252-1259; Sato 1995, Bone 17:157S-162S). Volumetric bone mineral density (BMD, mg/cm3), cross-sectional area (X-Area), voxel number, and mineral content (BMC, mg) were quantitated for the whole cross-section of the metaphysis. Sites of excised bones were analyzed at higher resolution, using a micro-CT (Stratec). Specifically, distal femora (below the condyles, see Sato et al. 1995) and L-3 vertebra (mid-cross section, Helterbrand et al., 1997, Bone 21:401-409) were analyzed using voxel dimensions of 50 ×50×1000 μm and 70×70×1000 μm, respectively.
In a second study, virgin Sprague-Dawley rats were bilaterally ovariectomized (except for the sham-operated group), the ovariectomized animals randomized, and allowed to lose bone for one month prior to treatment in the manner described above. […]

[4] = Cmpd. 1a 0.01 mg/kg/day oral, 3 months
[5] = Cmpd. 1a 0.3 mg/kg/day oral, 3 months
[6] = Cmpd. 1a 1 mg/kg/day oral, 3 months
[7] = continuous treatment (PTH 90 days)
[8] = Cmpd 1a 0.01 mg/kg/day oral, 3 months
[9] = Cmpd 1a 0.3 mg/kg/day oral, 3 months
[10] = Cmpd 1a 1 mg/kg/day oral, 3 months
[11] = PTH (1-34) discontinued after 45 days or switched to compound 1a
[12] = 3 months: PTH (1-34) 10 μg/kg/day s.c., 1a 0.3 mg/kg/day oral + PTH, EE2 0.1 mg/kg/day oral
[13] = PTH (1-34) 10 μg/kg/day s.c. 45 days, then vehicle or 1a 0.3 mg/kg/day oral 45 days

Compound: COc1ccc(-c2sc3cc(O)ccc3c2Oc2ccc(OCCN3CCCCC3)cc2)cc1 [Compound 1a, 6-hydroxy-2-(4-methoxyphenyl)-3-[4-(2-piperidin-1-ylethoxy)phenoxy]-benzo[b]thiophene]
- vertebral strength (Su) and toughness of L-6 vertebra (in words) [1]: improved vertebral strength (Su) and toughness in a dose-dependent manner to above OVX
- Vert E (Young's modulus) [1, 4]: 540 ± 72
- Vert u (toughness) [1, 4]: 1.72 ± 0.44
- Vert σu (vertebral strength) [1, 4]: 24.8 ± 2.3^s
- Vert E (Young's modulus) [1, 5]: 436 ± 76
- Vert u (toughness) [1, 5]: 1.97 ± 0.37
- Vert σu (vertebral strength) [1, 5]: 28.3 ± 1.9^o
- Vert E (Young's modulus) [1, 6]: 384 ± 30
- Vert u (toughness) [1, 6]: 2.30 ± 0.29^o
- Vert σu (vertebral strength) [1, 6]: 27.8 ± 1.5^o
- cortical thickness of femora mid-shaft (in words) [2, 7]: intermediate between Sham and OVX
- E (Young's modulus) [2, 8]: 9081 ± 446
- Fu (ultimate force) [2, 8]: 160 ± 5^s
- I (moment of inertia) [2, 8]: 4.35 ± .21
- t (cortical thickness) [2, 8]: .635 ± .020^s,o
- u (toughness) [2, 8]: 3.72 ± .26^s,o
- σu (strength) [2, 8]: 199 ± 5^s,o
- E (Young's modulus) [2, 9]: 8844 ± 431
- Fu (ultimate force) [2, 9]: 164 ± 4^s,o
- I (moment of inertia) [2, 9]: 4.05 ± .17^o
- t (cortical thickness) [2, 9]: .654 ± .012^s,o
- u (toughness) [2, 9]: 4.13 ± .24^o
- σu (strength) [2, 9]: 217 ± 5^o
- E (Young's modulus) [2, 10]: 10087 ± 520
- Fu (ultimate force) [2, 10]: 174 ± 4^o
- I (moment of inertia) [2, 10]: 4.17 ± .21
- t (cortical thickness) [2, 10]: .671 ± .010^s,o
- u (toughness) [2, 10]: 4.52 ± .25^o
- σu (strength) [2, 10]: 228 ± 9^o
- load to failure (Fu) and toughness of femora mid-shaft (in words) [2]: improved load to failure (Fu) and toughness in a dose-dependent manner to above OVX and not different from Sham at 1 mg/kg
- Neck Fu (ultimate force) [3, 4]: 112 ± 4.7
- Neck Fu (ultimate force) [3, 5]: 114 ± 5.1
- Neck Fu (ultimate force) [3, 6]: 117 ± 3.1
- spinal BMD or BMC of L-3 vertebra (micro-CT) (osteopenic rats): marginal effects

Compound: PTH: N-terminal 1-34 fragment of human parathyroid hormone, hPTH(1-34, Sequence ID No. 3); PTH/vehicle = 45 days PTH then vehicle
- vertebral strength (Su) of L-6 vertebra (in words) [1, 11]: lowered Su to below Sham
- vertebral strength (Su) and toughness of L-6 vertebra (in words) [1]: increased Su and toughness to above OVX and Sham levels
- Vert E (Young's modulus) [1, 12]: 686 ± 77
- Vert u (toughness) [1, 12]: 3.68 ± 1.10^s,o
- Vert σu (vertebral strength) [1, 12]: 45.5 ± 2.4^s,o
- Vert E (Young's modulus) [1, 13]: 524 ± 109
- Vert u (toughness) [1, 13]: 1.16 ± 0.22
- Vert σu (vertebral strength) [1, 13]: 24.2 ± 2.5^s
- cortical thickness of femora mid-shaft (in words) [2, 11]: lowered cortical thickness to below Sham
- cortical thickness of femora mid-shaft (in words) [2, 7]: increased cortical thickness above OVX
- E (Young's modulus) [2, 12]: 9854 ± 597
- Fu (ultimate force) [2, 12]: 202 ± 7^o
- I (moment of inertia) [2, 12]: 4.86 ± .26
- t (cortical thickness) [2, 12]: .739 ± .023^o
- u (toughness) [2, 12]: 5.24 ± .52^o
- σu (strength) [2, 12]: 234 ± 9^o
- E (Young's modulus) [2, 13]: 8516 ± 580
- Fu (ultimate force) [2, 13]: 171 ± 4^o
- I (moment of inertia) [2, 13]: 4.72 ± .17
- t (cortical thickness) [2, 13]: .630 ± .010^s
- u (toughness) [2, 13]: 3.81 ± .24^s,o
- σu (strength) [2, 13]: 205 ± 6^s,o
- load to failure (Fu) and toughness of femora mid-shaft (in words) [2]: improved Fu to above OVX
- ultimate load for the femora neck (in words) [3]: higher than OVX and Sham
- Neck Fu (ultimate force) [3, 12]: 148 ± 2.6^s,o
- Neck Fu (ultimate force) [3, 13]: 116 ± 6.2
- spinal BMD or BMC of L-3 vertebra (micro-CT) (osteopenic rats): improved BMD to significantly above OVX

Compound: C#C[C@]1(O)CC[C@H]2[C@@H]3CCc4cc(O)ccc4[C@H]3CC[C@@]21C [EE2, 17α-ethynyl estradiol]
- Vert E (Young's modulus) [1, 12]: 579 ± 94
- Vert u (toughness) [1, 12]: 1.44 ± 0.37
- Vert σu (vertebral strength) [1, 12]: 28.1 ± 2.6^o
- cortical thickness of femora mid-shaft (in words) [2, 7]: intermediate between Sham and OVX
- E (Young's modulus) [2, 12]: 10002 ± 844
- Fu (ultimate force) [2, 12]: 182 ± 11^o
- I (moment of inertia) [2, 12]: 4.42 ± .33
- t (cortical thickness) [2, 12]: .686 + .015^o
- u (toughness) [2, 12]: 4.62 ± .52^o
- σu (strength) [2, 12]: 225 ± 13^o
- load to failure (Fu) and toughness of femora mid-shaft (in words) [2]: above OVX and not different from Sham
- Neck Fu (ultimate force) [3, 12]: 110 ± 6.1
- spinal BMD or BMC of L-3 vertebra (micro-CT) (osteopenic rats): marginal effects
